According to article PMC9519446, “Discovery of an Orally Active Benzoxaborole Prodrug Effective in the Treatment of Chagas Disease in Non-human Primates” (Nature microbiology, 2022):
“And” between values parts separate entries of the source, which are not always exact repeats. Equal entries are not always repeated. Where two headings read alike, the source gives them in different places.

Tests used:
[1] = system: T. cruzi intracellular amastigotes; experiment: In vitro anti-T. cruzi intracellular amastigote growth inhibition assay (tdTomato fluorescence over 72 hours, Vero cells); assay type: cell-based, Trypanosoma cruzi
Method: (§1) The in vitro anti-T. cruzi amastiogote activity assay was performed and optimized based on the protocol described previously. The change in tdTomato fluorescence intensity was determined as a measurement of growth over 72 hours of culture. For assaying drug effects on extracellular amastigotes, trypomastigotes were collected from infected Vero cell cultures and converted in acidic media as previously described. Amastigotes (50,000/well) were incubated with 2-fold serial dilutions of compounds for 48 hours. The ATP production was used as an indication of growth in this case, and was measured by ATPlite Luminescence ATP Detection Assay System (PerkinElmer). Both fluorescence and luminescence were read using a BioTek Synergy Hybrid Multi-Mode reader equipped with the software Gene5 v 2.0 (BioTek). The dose-response curve was generated by […] analysis with GraphPad Prism v9.4.0 (GraphPad Software).

[2] = system: broad array of mammalian enzymes, receptors and ion channels; experiment: Preliminary safety pharmacology panel; assay type: binding
[3] = system: CPSF3-OE T. cruzi intracellular amastigotes; experiment: microbe, parasite or virus in culture; assay type: cell-based; settings: Trypanosoma cruzi, read-out: CPSF3-OE IC50, intracellular amastigotes
Method: as §1
The CPSF3 gene was amplified using primers ‘[…]’ and ‘[…]’, and integrated into the pTrex vector [47] by NEBuilder HiFi DNA assembly (New England Biolabs). The construct of pTrex-CPSF was then transfected into Brazil tdTomato epimastigotes and selected by 60ug/ml blasticidin.
To confirm the CPSF overexpression in the selected transfectants, RNA was extracted as previously described and converted to cDNA using SuperScript Reverse Transcriptase (Invitrogen). Quantitative PCR reactions were performed in triplicate on the C1000 Touch Bio-Rad CFX96 real-time PCR detection system for CPSF using primer sets CPSF-1 (5'-[…]-3' and 5'-[…]-3') and CPSF-2 (5'-[…]-3' and 5'-[…]-3') in both control and CPSF over-expressing parasites, and the expression level was normalized to tubulin which was amplified using primers: ‘[…]’ and ‘[…]’.

[4] = system: T. cruzi Brazil strain; experiment: Mouse cure assays (daily oral treatment, immunosuppression, qPCR of skeletal muscle, blood microscopy, hemoculture); assay type: in vivo, C57BL/6 mice; settings: for Parasite equivalent/ 50 ng of DNA of skeletal muscle: individual mice; for Parasite Equivalents/50ng of DNA of skeletal muscle: individual animals
Method: Male or female C57BL/6 mice were intraperitoneally infected with 10^4 trypomastigotes of the Brazil strain. Mouse infection was confirmed at 25-30 dpi by detection of CD8^+ T cells specific against the T. cruzi TSKb20 peptide in blood. Compounds resuspended in 1% carboxymethyl cellulose and 0.1% Tween 80, were administered daily by gavage at the specified concentrations. In order to optimally detect persistent infection, immune responses in the mice were suppressed by intraperitoneal injection of four doses of cyclophosphamide every 2-3 days (200 mg/kg/day), beginning one week after the end of therapeutic treatment. At the end of the immunosuppression regimen, peripheral blood was checked under light microscope for parasites and cultured in LDNT media. Mouse skeletal muscle samples were obtained at the end of the immunosuppression and processed for T. cruzi-DNA detection by qPCR as previously described.

[5] = Ames study
[6] = system: representative cytochrome P450 enzymes; experiment: Cytochrome P450 inhibition; assay type: in vitro ADME; settings: 10 uM
[7] = Pharmacokinetics in mice
[8] = In vitro micronucleus study; assay type: cell-based
[9] = system: T. cruzi CL strain in Vero cells; experiment: RNA-seq: parasite mRNA relative to host cell (Vero) mRNA; assay type: cell-based, Trypanosoma cruzi
Method: The drug concentration used for treatment was set at 5 times the IC50. Samples were collected at several time points for RNA extraction as previously described. rRNA-depleted RNA library construction and RNA sequencing using Illumina Nextseq 75PE was carried out by Georgia Genomics and Bioinformatics Core (GGBC, University of Georgia, Georgia). […] The mapping rate was quantified by HTseq v0.6.1 [51].

[10] = Trypanosoma cruzi, Vero, read-out: WT IC50, WT intracellular amastigotes, control of CPSF3-OE comparison
[11] = Trypanosoma cruzi, Vero, in vitro, Fig. 1a, Extended Data Fig. 1a, read-out: T. cruzi IC50
[12] = Fig. 3b, mice treated for 40 days
[13] = Fig. 3c, mice treated for 20 days

Cc1c(C(=O)N[C@H](C(=O)OCC2CCOCC2)C(C)C)ccc2c1B(O)OC2 [AN15368]
% of maximum ([1]; Fig 5.d, WT, [uM] 0.60): -2% | activity at 0.6 µM ([1]; Trypanosoma cruzi, Vero, 72 h, read-out: % of maximum, Fig 5.d, WT, [uM] 0.60): -2% | IC50 ([1]; Trypanosoma cruzi, Vero, 120 h, read-out: WT IC50, WT intracellular amastigotes, control of CPSF3 mutant comparison, Fig. 5d): 12 nM | IC50 [1, 10]: 2.4 nM | IC50 ([1]; Trypanosoma cruzi, Vero, read-out: WT IC50, WT intracellular amastigotes, control of TcCBP KO comparison): 2.4 nM | IC50 [1, 11]: 5 nM | affinity for mammalian enzymes, receptors and ion channels [2]: little to no affinity | IC50 [3]: 11.8 nM | minimal efficacious dose in mice ([4]; 40 day treatment cure assay, Fig 3e): 2.5 mg/kg | Parasite equivalent/ 50 ng of DNA of skeletal muscle [4, 12]: 0.0182 Parasite equivalent/ 50 ng of DNA and 0.32 Parasite equivalent/ 50 ng of DNA and 0.00408 Parasite equivalent/ 50 ng of DNA and 0.015 Parasite equivalent/ 50 ng of DNA and 0.12 Parasite equivalent/ 50 ng of DNA and 0.09 Parasite equivalent/ 50 ng of DNA and 0.06 Parasite equivalent/ 50 ng of DNA | Parasite equivalent/ 50 ng of DNA of skeletal muscle [4, 13]: 0.60 Parasite equivalent/ 50 ng of DNA and 0.12 Parasite equivalent/ 50 ng of DNA and 6.19 Parasite equivalent/ 50 ng of DNA and 0.32 Parasite equivalent/ 50 ng of DNA and 0.45 Parasite equivalent/ 50 ng of DNA | Parasite equivalent/ 50 ng of DNA of skeletal muscle ([4]; Fig. 3e, mice treated for 40 days with 2.5 mg/kg, 2.5 mg/kg): 0.7074 Parasite equivalent/ 50 ng of DNA and 0.07409 Parasite equivalent/ 50 ng of DNA and 0.06686 Parasite equivalent/ 50 ng of DNA and 0.2452 Parasite equivalent/ 50 ng of DNA and 0.02329 Parasite equivalent/ 50 ng of DNA and 2.237 Parasite equivalent/ 50 ng of DNA and 0.1466 Parasite equivalent/ 50 ng of DNA | outcome of cure assays ([4]; mice, Fig. 3): cures T. cruzi infection in mice | genotoxicity, Ames [5]: non-genotoxic | inhibition of representative cytochrome P450 enzymes [6]: did not demonstrate significant inhibition | exposure AUC0-last ([7]; mice, 10mg/kg dose): 17.5 µg·h/kg | minimal curative exposure in mice ([7]; mouse, in vivo, 2.5 mg/kg): 4.375 µg·h/kg | genotoxicity, in vitro micronucleus [8]: non-genotoxic

Cc1c(C(=O)NC(C(=O)OCc2ccc(F)c(F)c2)C(C)C)ccc2c1B(O)OC2 (stereo not shown) [AN14353]
IC50 [1, 10]: 0.5 nM | IC50 [1, 11]: 6 nM | RNA-seq reads mapped to African green monkey ([9]; 0hpt): 60 | RNA-seq reads mapped to T.cruzi CL Brener ([9]; 0hpt): 14 | RNA-seq reads unmapped ([9]; 0hpt): 26 | RNA-seq reads mapped to African green monkey ([9]; 6hpt): 63 | RNA-seq reads mapped to T.cruzi CL Brener ([9]; 6hpt): 5 | RNA-seq reads unmapped ([9]; 6hpt): 32 | RNA-seq reads mapped to African green monkey ([9]; 12hpt): 62 | RNA-seq reads mapped to T.cruzi CL Brener ([9]; 12hpt): 2 | RNA-seq reads unmapped ([9]; 12hpt): 35 | RNA-seq reads mapped to African green monkey ([9]; 24hpt): 77 | RNA-seq reads mapped to T.cruzi CL Brener ([9]; 24hpt): 1 | RNA-seq reads unmapped ([9]; 24hpt): 22 | parasite mRNA relative to host cell mRNA ([9]; T. cruzi-infected Vero cells, 30 nM AN14353 or 5 uM benznidazole, from 6 hrs): marked and continuing reduction in parasite mRNA | affinity for mammalian enzymes, receptors and ion channels [2]: little to no affinity | IC50 [3]: 1.9 nM | outcome of cure assay ([4]; 25 mg/kg, 40 day treatment, wild-type mice and immunodeficient mice): could consistently resolve established T. cruzi infections | Parasite equivalent/ 50 ng of DNA of skeletal muscle [4, 12]: 0.00339 Parasite equivalent/ 50 ng of DNA and 0.0112 Parasite equivalent/ 50 ng of DNA and 0.00674 Parasite equivalent/ 50 ng of DNA and 0.0326 Parasite equivalent/ 50 ng of DNA and 0.00218 Parasite equivalent/ 50 ng of DNA and 6.96e-5 Parasite equivalent/ 50 ng of DNA and 0.03 Parasite equivalent/ 50 ng of DNA | Parasite equivalent/ 50 ng of DNA of skeletal muscle [4, 13]: 3.39 Parasite equivalent/ 50 ng of DNA and 0.89 Parasite equivalent/ 50 ng of DNA and 0.07 Parasite equivalent/ 50 ng of DNA and 1.14 Parasite equivalent/ 50 ng of DNA and 0.69 Parasite equivalent/ 50 ng of DNA and 1.27 Parasite equivalent/ 50 ng of DNA | Parasite Equivalents/50ng of DNA of skeletal muscle ([4]; IFNg KO mice): 0.000877 Parasite Equivalents/50ng of DNA and 0.0011 Parasite Equivalents/50ng of DNA and 0.000197 Parasite Equivalents/50ng of DNA and 0.013 Parasite Equivalents/50ng of DNA and 0.002 Parasite Equivalents/50ng of DNA and 0.00327 Parasite Equivalents/50ng of DNA and 0.004 Parasite Equivalents/50ng of DNA and 0.00265 Parasite Equivalents/50ng of DNA and 0.000622 Parasite Equivalents/50ng of DNA | Parasite Equivalents/50ng of DNA of skeletal muscle ([4]; mice, 10 mg/kg): 0.00752 Parasite Equivalents/50ng of DNA and 0.05 Parasite Equivalents/50ng of DNA and 0.00 Parasite Equivalents/50ng of DNA | Parasite Equivalents/50ng of DNA of skeletal muscle ([4]; mice, 25 mg/kg): 0.00369 Parasite Equivalents/50ng of DNA and 0.00 Parasite Equivalents/50ng of DNA and 0.00185 Parasite Equivalents/50ng of DNA and 0.0154 Parasite Equivalents/50ng of DNA | genotoxicity, Ames [5]: non-genotoxic | inhibition of representative cytochrome P450 enzymes [6]: did not demonstrate significant inhibition | oral absorption (in words) ([7]; mice, dose proportionality evaluation): solubility-limited absorption | dose proportionality of exposure ([7]; mice, oral): lack of dose | genotoxicity, in vitro micronucleus [8]: non-genotoxic
